Test results as given in paper PMC8780434 (Viruses, 2022).
“And” between values parts separate entries of the source, which are not always exact repeats. Equal entries are not always repeated. Where two headings read alike, the source gives them in different places.

Columns and labels:
EV71 [1] = assay: Western blot of viral VP1 in EV71-infected RD cells; conditions: for VP1/Tubulin (%): EV71 MOI 1, 6 h, DMSO = 100; for antiviral activity against EV71 infections, rank among SSRIs: 5 or 10 μM, Western blot
[2] = Secondary screening cell cytotoxicity; conditions: at 10 μM, secondary screening criterion
EV71 [3] = assay: Immunofluorescence assay (IFA) of anti-EV71 potency; format: cell-based, EV71 (strain BrCr); conditions: Enterovirus A, EV71 MOI 0.1, 12 h p.i.
[4] = Cell viability assay (CellTiter 96 AQueous) in HeLa cells; conditions: human
[5] = Cell viability assay (CellTiter 96 AQueous) in RD cells; conditions: human
[6] = human, 12 h, 10 μM
in vitro [7] = conditions: human
in vitro [8] = conditions: human; remark: listed apart in the source
EV71 [9] = conditions: active in the range of several mM; cited from earlier work
[10] = parameters: method as in earlier work; conditions: cited from earlier work
EV71 [11] = assay: Time-of-addition assay (RT-qPCR of viral RNA); format: cell-based, EV71 (strain BrCr); conditions: RD cells, 10 μM, MOI 0.1, RT-qPCR
EV71 [12] = assay: Virus internalization assay (RT-qPCR); conditions: RD cells, 5 or 10 μM, 37 °C 1 h after binding, trypsinized, MOI 5
EV71 [13] = assay: Virus binding assay (RT-qPCR); conditions: RD cells, 5 or 10 μM, 0 °C 1 h, MOI 5
EV71 [14] = assay: Low-pH exposure assay (Western blot and plaque assay); format: cell-based, EV71 (strain BrCr); conditions: 10 μM; for times more viral titer than the sertraline-treated pH 7.4 control: 12 h
EV71 [15] = assay: FRET-based biosensor drug screening (HeLa-G2AwtR cells) for EV71 inhibitors; format: cell-based, EV71 (strain BrCr); conditions: Enterovirus A, read-out: inhibition rate
[16] = 5 μM drug, HeLa-G2AwtR cells, EV71 MOI 1, 12 h

For `CN(C)CCCN1c2ccccc2Sc2ccc(Cl)cc21` [CPZ, chlorpromazine], the “VP1/Tubulin (%)” value (EV71 [1]; 5 μM) was 109% and the “VP1/Tubulin (%)” value (EV71 [1]; 10 μM) was 54%.
For `CCN(CC)CCCC(C)Nc1ccnc2cc(Cl)ccc12` (stereo not shown) [CQ, chloroquine], the “VP1/Tubulin (%)” value (EV71 [1]; 5 μM) was 52% and the “VP1/Tubulin (%)” value (EV71 [1]; 10 μM) was 15%.
For `COCCCC/C(=N\OCCN)c1ccc(C(F)(F)F)cc1` [FLX, fluvoxamine], the “VP1/Tubulin (%)” value (EV71 [1]; 5 μM) was 82%, the “VP1/Tubulin (%)” value (EV71 [1]; 10 μM) was 77% and the “antiviral activity against EV71 infections, rank among SSRIs” value (EV71 [1]) was “weakest antiviral activity”.
In the case of `CCCCCCCCc1ccc(CCC(N)(CO)CO)cc1` [Fingolimod], the cell cytotoxicity [2] is reported as under 20%, the IC50 (EV71 [3]; HeLa cells) is reported as 2.94 µM and the IC50 (EV71 [3]; RD cells) is reported as 3.59 µM. For the same compound, the CC50 at 12 h [4] was 21.8 µM and the CC50 at 12 h [5] was 24.5 µM.
`Oc1c(Cl)cc(Cl)c(Cl)c1Cc1c(O)c(Cl)cc(Cl)c1Cl` [Hexachorophene, Hexachlorophene] showed a cell cytotoxicity [2] of under 20%.
In the case of `OC(c1cc(C(F)(F)F)nc2c(C(F)(F)F)cccc12)C1CCCCN1` (stereo not shown) [Mefloquine], the IC50 (EV71 [3]; HeLa cells) is reported as 3.25 µM, the IC50 (EV71 [3]; RD cells) is reported as 3.89 µM and the cell cytotoxicity [6] is reported as under 20%. The CC50 at 12 h (in vitro [7]) was 29.8 µM and the CC50 at 12 h (in vitro [8]) was 30 µM.
In the case of `Cl.N` [NH4Cl], the “antiviral effect compared with sertraline and chloroquine” value (EV71 [9]) is given as “much weaker antiviral effect”.
For `OC(CNCC(O)C1CCc2cc(F)ccc2O1)C1CCc2cc(F)ccc2O1` (stereo not shown) [Nebivolol], the IC50 (EV71 [3]; HeLa cells) was 4.17 µM, the IC50 (EV71 [3]; RD cells) was 4.74 µM and the cell cytotoxicity [6] was under 20%. It also gave a CC50 at 12 h (in vitro [7]) of 32.7 µM and a CC50 at 12 h (in vitro [8]) of 32.9 µM.
With `Fc1ccc([C@@H]2CCNC[C@H]2COc2ccc3c(c2)OCO3)cc1` [PAR, paroxetine] the “VP1/Tubulin (%)” value (EV71 [1]; 5 μM) was 74% and the “VP1/Tubulin (%)” value (EV71 [1]; 10 μM) was 48%.
For `CN[C@H]1CC[C@@H](c2ccc(Cl)c(Cl)c2)c2ccccc21` [Sertraline], the “VP1/Tubulin (%)” value (EV71 [1]; 5 μM) was 58%, the “VP1/Tubulin (%)” value (EV71 [1]; 10 μM) was 10% and the “antiviral activity against EV71 infections, rank among SSRIs” value (EV71 [1]) was “strongest inhibitory effect”. For the same compound, the “maximum concentration in human plasma” value [10] was “approximately 200 ng/mL and ~ 654 nM”, the cell cytotoxicity [6] was under 20% and the “viral RNA levels, post-entry step” value (EV71 [11]; drug present 2-12 h) was “negligible effect”. For the same compound, the “viral RNA levels, entry step” value (EV71 [11]; drug present -2 to 2 h) was “profound reduction”, the “viral RNA levels, virus internalization, versus drug-free control” value (EV71 [12]) was “undetectable difference” and the “viral RNA levels, virus binding, versus drug-free control” value (EV71 [13]) was “undetectable difference”. The “times more viral titer than the sertraline-treated pH 7.4 control” value (EV71 [14]; HeLa cells, pH 5 medium 10 min) was 13.4 times, the “times more viral titer than the sertraline-treated pH 7.4 control” value (EV71 [14]; HeLa cells, pH 5.5 medium 10 min) was 4 times and the “viral replication at the levels of viral protein after low-pH shocks” value (EV71 [14]; RD and HeLa cells, pH 5.5 and 5, 6 h p.i., Western blot) was “markedly rescued”. The “times more viral titer than the sertraline-treated pH 7.4 control” value (EV71 [14]; RD cells, pH 5 medium 10 min) was 16 times and the “times more viral titer than the sertraline-treated pH 7.4 control” value (EV71 [14]; RD cells, pH 5.5 medium 10 min) was 5.7 times.
With `COc1cccc2c1C(=O)c1c(O)c3c(c(O)c1C2=O)C[C@@](O)(C(C)=O)C[C@@H]3O[C@H]1C[C@H](N)[C@H](O)[C@H](C)O1` [daunorubicin] the inhibition at 5 µM (EV71 [15]; EV71, 12 h) was over 50%.
Work on `COc1cccc2c1C(=O)c1c(O)c3c(c(O)c1C2=O)C[C@@](O)(C(=O)CO)C[C@@H]3O[C@H]1C[C@H](N)[C@H](O)[C@H](C)O1` [doxorubicin] yielded an inhibition at 5 µM (EV71 [15]; [16]) of over 50%.
`COc1cccc2c1C(=O)c1c(O)c3c(c(O)c1C2=O)C[C@@](O)(C(=O)CO)C[C@@H]3O[C@H]1C[C@H](N)[C@@H](O)[C@H](C)O1` [epirubicin] gave an inhibition at 5 µM (EV71 [15]; [16]) of over 50%.
Work on `Nc1ccn([C@@H]2O[C@H](CO)[C@@H](O)C2(F)F)c(=O)n1` [gemcitabine] yielded an inhibition at 5 µM (EV71 [15]; [16]) of over 50%.
Work on `CC(=O)[C@]1(O)Cc2c(O)c3c(c(O)c2[C@@H](O[C@H]2C[C@H](N)[C@H](O)[C@H](C)O2)C1)C(=O)c1ccccc1C3=O` [idarubicin] yielded an inhibition at 5 µM (EV71 [15]; [16]) of over 50%.
Compound `O=C1c2c(O)ccc(O)c2C(=O)c2c(NCCNCCO)ccc(NCCNCCO)c21` [mitoxantrone] has an inhibition at 5 µM (EV71 [15]; [16]) of over 50%.
